Reference: the NIST ThermoML archive (doi:10.1021/je700140j)
± gives the expanded uncertainty stated by the source.

Experiment: xn = mol fraction of the nth substance listed
Conditions: for surface tension liquid-gas: Ring tensiometer; for mass density / viscosity: 100.8 kPa, Liquid

OCCc1ccccc1 [2-phenylethanol] + OCc1ccccc1
Conditions | mass density, 298.15 K [kg/m3] | mass density, 308.15 K [kg/m3] | mass density, 318.15 K [kg/m3] | surface tension liquid-gas, 298.15 K [mN/m] | surface tension liquid-gas, 308.15 K [mN/m] | surface tension liquid-gas, 318.15 K [mN/m] | viscosity, 298.15 K [mPa·s] | viscosity, 308.15 K [mPa·s] | viscosity, 318.15 K [mPa·s]
x2 = 0 | 1016.2 ± 0.39 | 1008.63 ± 0.37 | 1000.98 ± 0.36 | 39.43 ± 0.58 | 38.93 ± 0.57 | 38.35 ± 0.56 | 11.4 ± 0.14 | 7.518 ± 0.098 | 5.232 ± 0.071
x2 = 0.05 | 1018.11 ± 0.39 | 1010.83 ± 0.37 | 1003.42 ± 0.35 | – | – | – | 11.07 ± 0.14 | 7.322 ± 0.095 | 5.116 ± 0.07
x2 = 0.1 | 1020.14 ± 0.38 | 1013.11 ± 0.36 | 1005.98 ± 0.35 | 39.2 ± 0.57 | 38.7 ± 0.57 | 38.11 ± 0.56 | 10.73 ± 0.14 | 7.132 ± 0.093 | 5 ± 0.068
x2 = 0.15 | 1022.33 ± 0.38 | 1015.32 ± 0.36 | 1008.23 ± 0.34 | – | – | – | 10.41 ± 0.13 | 6.94 ± 0.09 | 4.883 ± 0.066
x2 = 0.2 | 1024.45 ± 0.37 | 1017.42 ± 0.35 | 1010.36 ± 0.34 | 39 ± 0.57 | 38.48 ± 0.56 | 37.86 ± 0.55 | 10.08 ± 0.13 | 6.752 ± 0.088 | 4.77 ± 0.065
x2 = 0.25 | 1026.56 ± 0.37 | 1019.52 ± 0.35 | 1012.41 ± 0.33 | – | – | – | 9.759 ± 0.12 | 6.564 ± 0.085 | 4.655 ± 0.063
x2 = 0.3 | 1028.52 ± 0.36 | 1021.44 ± 0.35 | 1014.25 ± 0.33 | 38.83 ± 0.56 | 38.28 ± 0.55 | 37.63 ± 0.55 | 9.44 ± 0.12 | 6.372 ± 0.083 | 4.542 ± 0.061
x2 = 0.35 | 1030.34 ± 0.36 | 1023.25 ± 0.34 | 1015.99 ± 0.33 | – | – | – | 9.125 ± 0.11 | 6.186 ± 0.08 | 4.43 ± 0.06
x2 = 0.4 | 1032.11 ± 0.35 | 1024.95 ± 0.34 | 1017.65 ± 0.32 | 38.7 ± 0.56 | 38.1 ± 0.55 | 37.41 ± 0.54 | 8.816 ± 0.11 | 5.999 ± 0.078 | 4.32 ± 0.058
x2 = 0.45 | 1033.8 ± 0.35 | 1026.61 ± 0.33 | 1019.28 ± 0.32 | – | – | – | 8.506 ± 0.11 | 5.815 ± 0.076 | 4.21 ± 0.056
x2 = 0.5 | 1035.25 ± 0.34 | 1028.06 ± 0.33 | 1020.74 ± 0.31 | 38.6 ± 0.55 | 37.95 ± 0.54 | 37.21 ± 0.53 | 8.203 ± 0.1 | 5.636 ± 0.074 | 4.101 ± 0.055
x2 = 0.55 | 1036.33 ± 0.34 | 1029.16 ± 0.32 | 1021.87 ± 0.31 | – | – | – | 7.913 ± 0.099 | 5.467 ± 0.071 | 3.997 ± 0.053
x2 = 0.6 | 1037.32 ± 0.33 | 1030.12 ± 0.32 | 1022.84 ± 0.3 | 38.6 ± 0.55 | 37.9 ± 0.54 | 37.12 ± 0.53 | 7.628 ± 0.096 | 5.302 ± 0.069 | 3.897 ± 0.052
x2 = 0.65 | 1038.01 ± 0.33 | 1030.89 ± 0.31 | 1023.63 ± 0.3 | – | – | – | 7.351 ± 0.092 | 5.14 ± 0.067 | 3.797 ± 0.051
x2 = 0.7 | 1038.62 ± 0.32 | 1031.56 ± 0.31 | 1024.26 ± 0.29 | 38.6 ± 0.55 | 37.85 ± 0.54 | 37.02 ± 0.53 | 7.081 ± 0.089 | 4.979 ± 0.066 | 3.697 ± 0.049
x2 = 0.75 | 1039.06 ± 0.31 | 1031.9 ± 0.3 | 1024.63 ± 0.28 | – | – | – | 6.813 ± 0.086 | 4.821 ± 0.063 | 3.599 ± 0.048
x2 = 0.8 | 1039.43 ± 0.31 | 1032.23 ± 0.29 | 1024.86 ± 0.28 | 38.6 ± 0.55 | 37.8 ± 0.54 | 36.92 ± 0.52 | 6.554 ± 0.083 | 4.666 ± 0.061 | 3.5 ± 0.046
x2 = 0.85 | 1039.72 ± 0.3 | 1032.44 ± 0.29 | 1024.99 ± 0.27 | – | – | – | 6.296 ± 0.079 | 4.519 ± 0.059 | 3.402 ± 0.045
x2 = 0.9 | 1040 ± 0.3 | 1032.65 ± 0.28 | 1025.18 ± 0.27 | 38.6 ± 0.54 | 37.76 ± 0.53 | 36.84 ± 0.52 | 6.036 ± 0.076 | 4.374 ± 0.057 | 3.306 ± 0.044
x2 = 0.95 | 1040.59 ± 0.29 | 1033.06 ± 0.28 | 1025.43 ± 0.26 | – | – | – | 5.787 ± 0.074 | 4.232 ± 0.055 | 3.213 ± 0.042
